System: Rattus norvegicus
Assay: Compound was evaluated in vivo for the effective dose of irradiation that causes antitumor activity
Type: functional
Settings: light or radiation study

Row | SMILES | ED50
1 | CCC1=C(CC)c2cc3[nH]c(cc4[nH]c(cc5nc(cc1n2)C(=O)C5(CC)CC)c(CC)c4CC)C1(CC)C3=CCC(C(=O)OC)=C1C(=O)OC.CCC1=C(CC)c2cc3[nH]c(cc4[nH]c(cc5nc(cc1n2)C1=CCC(C(=O)OC)=C(C(=O)OC)C15CC)c(CC)c4CC)C(=O)C3(CC)CC (stereo not drawn) | 1 mg/kg
2 | C=CC1=C(CC)/C2=C/c3[nH]c(c(CC)c3CC)/C=C3N=C(/C=c4\[nH]/c(c(CC)c4CC)=C\C1N2)C(CC)(CC)C\3=O.C=CC1=C(CC)C2/C=c3\[nH]/c(c(CC)c3CC)=C\C3=NC(=C\c4[nH]c(c(CC)c4CC)/C=C/1N2)/C(=O)C3(CC)CC (mixture of isomers) | 2.5 mg/kg
3 | CCC1=C(CC)c2cc3[nH]c(cc4[nH]c(cc5nc(cc1n2)C(=O)C5(CC)CC)c(CC)c4CC)C1(CC)C3=CCC(C#N)(C#N)C1(C#N)C#N.CCC1=C(CC)c2cc3[nH]c(cc4[nH]c(cc5nc(cc1n2)C1=CCC(C#N)(C#N)C(C#N)(C#N)C15CC)c(CC)c4CC)C(=O)C3(CC)CC (mixture of isomers) | 2.5 mg/kg

Reference: ChEMBL document CHEMBL1125580, “Synthesis and in vivo photodynamic activity of some bacteriochlorin derivatives against bladder tumors in rodents” (1991)
